{"source": "ChEMBL document CHEMBL1221225", "about": "“A small molecule that directs differentiation of human ESCs into the pancreatic lineage” (Nat Chem Biol, 2009)", "key": {"[1]": {"test": "Induction of cell proliferation in human HUES8 Pdx1 expressing cells assessed as expression of Ki67 at 300 nM after 4 days by immunocytochemistry", "assay_type": "functional"}, "Homo sapiens [2]": {"species_on_record": "Homo sapiens", "test": "Induction of human HUES8 differentiation into definitive endoderm assessed as expression of SOX17 at 300 nM after 3 days by immunocytochemistry", "assay_type": "functional"}, "[3]": {"test": "Induction of mouse AV3 cell differentiation into pancreatic lineage assessed as increase in Pdx-1 expression at 300 nM after 6 days by immunohistochemistry pretreated with 1000 ng/ml recombinant mouse Nodal for 5 days (reference value: 4.0+/-1.5%)", "assay_type": "functional"}, "AV3 [4]": {"tested_on": "AV3", "test": "Induction of mouse AV3 cell differentiation into pancreatic lineage assessed as increase in Pdx1 mRNA expression at 300 nM after 6 days by RT-PCR analysis pretreated with 1000 ng/ml recombinant mouse Nodal for 5 days", "assay_type": "functional, cell-based"}, "[5]": {"test": "Induction of human HUES8 cell differentiation into pancreatic progenitor cell assessed as FOXA2 expression in cells pregrown in medium containing Wnt, activin, FGF10, KAAD-cyclopamine and retinoic acid at 300 nM after 4 days by immunocytochemistry relative to control", "assay_type": "functional"}, "HUES8 [6]": {"tested_on": "HUES8", "test": "Induction of human HUES8 cell differentiation into pancreatic progenitor cell assessed as increase in NGN3 mRNA expression at 300 nM after 4 days by RT-PCR analysis cells pregrown in medium containing Wnt, activin, FGF10, KAAD-cyclopamine and retinoic acid", "assay_type": "functional, cell-based"}, "Homo sapiens [7]": {"species_on_record": "Homo sapiens", "test": "Effect on human HUES8 differentiation into neuronal lineage assessed as c-peptide/GFAP double positive cells at 300 nM after 4 days by immunocytochemistry", "assay_type": "functional"}, "[8]": {"test": "Inhibition of PKC signaling in human HUES8 cells assessed as decrease in Pdx1-expressing cells at 1 uM after 4 days cells pregrown in medium with Wnt3a, activin A, FGF10, KAAD-cyclopamine and retinoic acid in presence of 10 uM Go 6983 by immunocytochemistry (reference value: 26.9+/-2.8%)", "assay_type": "cell-based"}, "HUES8 [9]": {"tested_on": "HUES8", "test": "Induction of human HUES8 cell differentiation into pancreatic progenitor cell assessed as increase in HB9 mRNA expression at 300 nM after 4 days by RT-PCR analysis pregrown in medium containing Wnt, activin, FGF10, KAAD-cyclopamine and retinoic acid", "assay_type": "functional, cell-based"}, "Mus musculus [10]": {"species_on_record": "Mus musculus", "test": "Induction of SOX1 expression in CD1 nude mouse ectoderm at 300 nM after 4 days by fluorescent confocal microscopy", "assay_type": "functional, tissue-based"}, "HUES8 [11]": {"tested_on": "HUES8", "test": "Induction of human HUES8 cell differentiation into pancreatic progenitor cell assessed as increase in Pdx1 mRNA expression at 300 nM after 4 days by RT-PCR analysis cells pregrown in medium containing Wnt, activin, FGF10, KAAD-cyclopamine and retinoic acid", "assay_type": "functional, cell-based"}, "[12]": {"test": "Induction of insulin production in differentiated human HUES8 cells at 300 nM after 4 days by immunocytochemistry (reference value: 0.2+/-0.1%)", "assay_type": "functional"}, "Heart [13]": {"tested_on": "Heart", "test": "Induction of ISL1 expression in CD1 nude mouse heart at 300 nM after 4 days by fluorescent confocal microscopy", "assay_type": "functional, tissue-based"}, "Mus musculus [14]": {"species_on_record": "Mus musculus", "test": "Induction of desmin expression in CD1 nude mouse mesoderm at 300 nM after 4 days by fluorescent confocal microscopy", "assay_type": "functional, tissue-based"}, "[15]": {"test": "Induction of human HUES8 differentiation into pancreatic lineage assessed as increase in DBA-positive exocrine cells at 300 nM after 4 days by RT-PCR (reference value: 0.8+/-0.2%)", "assay_type": "functional"}, "[16]": {"test": "Inhibition of PKC signaling in human HUES8 cells assessed as decrease in Pdx1-expressing cells at 4 uM after 4 days by immunocytochemistry in presence of ILV pregrown in medium with Wnt3a, activin A, FGF10, KAAD-cyclopamine and retinoic acid (reference value: 26.9+/-2.8%)", "assay_type": "cell-based"}, "Stomach": {"tested_on": "Stomach", "test": "Induction of BARX1 expression in CD1 nude mouse stomach at 300 nM after 4 days by fluorescent confocal microscopy", "assay_type": "functional, tissue-based"}, "Mus musculus [17]": {"species_on_record": "Mus musculus", "test": "Induction of SOX7 expression in CD1 nude mouse extra-embryonic endoderm at 300 nM after 4 days by fluorescent confocal microscopy", "assay_type": "functional, tissue-based"}, "Homo sapiens [18]": {"species_on_record": "Homo sapiens", "test": "Induction of Pdx1 expression in human HUES8 insulin-producing cells at 300 nM after 4 days by immunocytochemistry relative to control", "assay_type": "functional"}, "Mus musculus [19]": {"species_on_record": "Mus musculus", "test": "Induction of nestin expression in CD1 nude mouse ectoderm at 300 nM after 4 days by fluorescent confocal microscopy", "assay_type": "functional, tissue-based"}, "Homo sapiens [20]": {"species_on_record": "Homo sapiens", "test": "Effect on human HUES8 differentiation into neuronal lineage assessed as c-peptide/betaIIItubulin double positive cells at 300 nM after 4 days by immunocytochemistry", "assay_type": "functional, cell-based"}, "Intestine": {"tested_on": "Intestine", "test": "Induction of FABP2 expression in CD1 nude mouse intestine at 300 nM after 4 days by fluorescent confocal microscopy", "assay_type": "functional, tissue-based"}, "[21]": {"test": "Induction of human GTE cells differentiation into pancreatic lineage assessed as increase in Pdx1-expressing cells at 300 nM after 4 days by immunocytochemistry pregrown in medium with FGF10 and KAAD-cyclopamine (Rvb (DMSO) = 2.8+/-0.6%)", "assay_type": "functional"}, "HUES8 [22]": {"tested_on": "HUES8", "test": "Induction of human HUES8 cell differentiation into pancreatic progenitor cell assessed as increase in PTF1A mRNA expression at 300 nM after 4 days by RT-PCR analysis cells pregrown in medium containing Wnt, activin, FGF10, KAAD-cyclopamine and retinoic acid", "assay_type": "functional, cell-based"}, "Heart [23]": {"tested_on": "Heart", "test": "Induction of Troponin T expression in CD1 nude mouse heart at 300 nM after 4 days by fluorescent confocal microscopy", "assay_type": "functional, tissue-based"}, "Mus musculus [24]": {"species_on_record": "Mus musculus", "test": "Induction of mouse AV3 Pdx1-expressing cell differentiation assessed as increase in SOX9 expression at 300 nM after 6 days by immunohistochemistry pretreated with 1000 ng/ml recombinant mouse Nodal for 5 days", "assay_type": "functional"}, "[25]": {"test": "Inhibition of PKC signaling in human HUES8 cells assessed as decrease in Pdx1-expressing cells at 1 uM after 4 days cells pregrown in medium with Wnt3a, activin A, FGF10, KAAD-cyclopamine and retinoic acid in presence of 1 uM BISI by immunocytochemistry (reference value: 26.9+/-2.8%)", "assay_type": "cell-based"}, "HUES8 [26]": {"tested_on": "HUES8", "test": "Induction of human HUES8 cell differentiation into pancreatic progenitor cell assessed as increase in SOX9 mRNA expression at 300 nM after 4 days by RT-PCR analysis cells pregrown in medium containing Wnt, activin, FGF10, KAAD-cyclopamine and retinoic acid", "assay_type": "functional, cell-based"}, "[27]": {"test": "Induction of human HUES8 cell differentiation into pancreatic progenitor cells assessed as increase in Pdx1-expression in cells pregrown with medium containing Wnt, activin, FGF10, KAAD-cyclopamine and retinoic acid at 300 nM after 4 days by Opera high content screening system relative to control", "assay_type": "functional"}, "[28]": {"test": "Induction of human HUES8 cell differentiation into pancreatic progenitor cell assessed as PTF1A expression in cells pregrown in medium containing Wnt, activin, FGF10, KAAD-cyclopamine and retinoic acid at 300 nM after 4 days by immunocytochemistry relative to control", "assay_type": "functional"}, "AV3 [29]": {"tested_on": "AV3", "test": "Induction of mouse AV3 cell differentiation into pancreatic lineage assessed as increase in Nkx2.2 mRNA expression at 300 nM after 6 days by RT-PCR analysis pretreated with 1000 ng/ml recombinant mouse Nodal for 5 days", "assay_type": "functional, cell-based"}}, "note": "The source made the active and inactive calls. The rule behind the calls is not given here.", "data": [{"smiles": "CC(C)[C@H]1C(=O)N[C@H](CO)Cc2c[nH]c3cccc(c23)N1C", "note": "[INDOLACTUM]", "values": [{"measurement": "Activity", "setting": "[1]", "result": 0.1, "unit": "%"}, {"measurement": "Activity", "setting": "Homo sapiens [2]", "result": "inactive"}, {"measurement": "Activity", "setting": "[3]", "result": 50, "unit": "%"}, {"measurement": "Activity", "setting": "AV3 [4]", "result": "Active"}, {"measurement": "Activity", "setting": "[5]", "result": 99.5, "unit": "%"}, {"measurement": "Activity", "setting": "HUES8 [6]", "result": "Active"}, {"measurement": "Activity", "setting": "Homo sapiens [7]", "result": "inactive"}, {"measurement": "inhibition", "setting": "[8]", "result": 0.8, "unit": "%"}, {"measurement": "Activity", "setting": "HUES8 [9]", "result": "Active"}, {"measurement": "Activity", "setting": "Mus musculus [10]", "result": "inactive"}, {"measurement": "Activity", "setting": "HUES8 [11]", "result": "Active"}, {"measurement": "Activity", "setting": "[12]", "result": 0.5, "unit": "%"}, {"measurement": "Activity", "setting": "Heart [13]", "result": "inactive"}, {"measurement": "Activity", "setting": "Mus musculus [14]", "result": "inactive"}, {"measurement": "Activity", "setting": "[15]", "result": 3.6, "unit": "%"}, {"measurement": "inhibition", "setting": "[16]", "result": 1.2, "unit": "%"}, {"measurement": "Activity", "setting": "Stomach", "result": "inactive"}, {"measurement": "Activity", "setting": "Mus musculus [17]", "result": "inactive"}, {"measurement": "Activity", "setting": "Homo sapiens [18]", "result": "Active"}, {"measurement": "Activity", "setting": "Mus musculus [19]", "result": "inactive"}, {"measurement": "Activity", "setting": "Homo sapiens [20]", "result": "inactive"}, {"measurement": "Activity", "setting": "Intestine", "result": "inactive"}, {"measurement": "Activity", "setting": "[21]", "result": 21.5, "unit": "%"}, {"measurement": "Activity", "setting": "HUES8 [22]", "result": "Active"}, {"measurement": "Activity", "setting": "Heart [23]", "result": "inactive"}, {"measurement": "Activity", "setting": "Mus musculus [24]", "result": "Active"}, {"measurement": "inhibition", "setting": "[25]", "result": 0.6, "unit": "%"}, {"measurement": "Activity", "setting": "HUES8 [26]", "result": "Active"}, {"measurement": "Activity", "setting": "[27]", "result": 26.9, "unit": "%"}, {"measurement": "Activity", "setting": "[28]", "result": 90.1, "unit": "%"}, {"measurement": "Activity", "setting": "AV3 [29]", "result": "Active"}]}]}
